Tests used:
[1] = target: T1, human LPA1 (Homo sapiens, UniProt Q92633); experiment: LPA1 functional antagonist assay (LPA-induced calcium flux); assay type: cell-based; conditions: CHO cells overexpressing human LPA1; inhibition of calcium flux induced by 10 nM LPA; read-out: hLPA1 IC50
T1 construct: expressed in transfected cells; host or cells: Chinese hamster ovary (CHO) cells
Procedure: The effectiveness of compounds of the present invention as LPA1 inhibitors can be determined in an LPA1 functional antagonist assay as follows:
Chinese hamster ovary cells overexpressing human LPA1 were plated overnight (15,000 cells/well) in poly-D-lysine coated 384-well microplates (Greiner bio-one, Cat#781946) in DMEM/F12 medium (Gibco, Cat#11039). Following overnight culture, cells were loaded with calcium indicator dye (AAT Bioquest Inc, Cat#34601) for 30 minutes at 37° C. The cells were then equilibrated to room temperature for 30 minutes before the assay. Test compounds solubilized in DMSO were transferred to 384 well non-binding surface plates (Coming, Cat#3575) using the Labcyte Echo acoustic dispense and diluted with assay buffer [1X HBSS with calcium/magnesium (Gibco Cat#14025-092), 20 mM HEPES (Gibco Cat#15630-080) and 0.1% fatty acid free BSA (Sigma Cat#A9205)] to a final concentration of 0.5% DMSO. Diluted compounds were added to the cells by FDSS6000 (Hamamatsu) at final concentrations ranging from 0.08 nM to 5 μM. and were then incubated for 20 min at room temperature at which time LPA (Avanti Polar Lipids Cat#857130C) was added at final concentrations of 10 nM to stimulate the cells. The compound IC50 value was defined as the concentration of test compound which inhibited 50% of the calcium flux induced by LPA alone. IC50 values were determined by fitting data to a 4-parameter logistic equation (GraphPad Prism, San Diego Calif.).

[2] = test system: nerve-injured mice; conditions: pretreatment, Inoue et al 2004; cited from earlier work
[3] = test system: human foetal lung fibroblasts; conditions: Tager et al. Nature Medicine 2008; cited from earlier work
[4] = test system: UUO mice; conditions: compared with LPA1 (−/−) mice; cited from earlier work
[5] = test system: CTGF; conditions: MCT cells, co-treatment with LPA; cited from earlier work
[6] = test system: pancreatic cancer cell lines; conditions: Yamada et al 2004; cited from earlier work
[7] = test system: highly peritoneal metastatic pancreatic cancer cell line; conditions: Yamada et al 2004; cited from earlier work

T1 sequence (Q92633 whole entry): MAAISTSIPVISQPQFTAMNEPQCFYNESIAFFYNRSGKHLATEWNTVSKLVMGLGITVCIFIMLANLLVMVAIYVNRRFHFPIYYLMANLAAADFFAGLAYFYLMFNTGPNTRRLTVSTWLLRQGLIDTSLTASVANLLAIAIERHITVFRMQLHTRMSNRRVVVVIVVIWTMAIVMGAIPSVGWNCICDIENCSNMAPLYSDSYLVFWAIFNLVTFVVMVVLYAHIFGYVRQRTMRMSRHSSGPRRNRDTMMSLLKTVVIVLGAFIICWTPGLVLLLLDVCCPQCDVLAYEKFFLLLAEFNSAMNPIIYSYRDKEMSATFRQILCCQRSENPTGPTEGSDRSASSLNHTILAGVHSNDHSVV

| IC50 [1] | Compound | other results |
| --- | --- | --- |
| 16 nM | Cc1nc(-c2nnn(C)c2COC(=O)N(C)Cc2ccccc2)ccc1OC1CCCCC(C(=O)O)C1 (racemic) [Example 1, (±)-3-((6-(5-(((benzyl(methyl)carbamoyl)oxy)methyl)-1-methyl-1H-1,2,3-triazol-4-yl)-2-methylpyridin-3-yl)oxy)cycloheptane-1-carboxylic Acid] |  |
| 32 nM | CCc1cc(OCc2c(-c3ccc(OC4CCCCC(C(=O)O)C4)c(C)n3)nnn2C)ncn1 (racemic) [Example 15, (±)-3-((6-(5-(((6-ethylpyrimidin-4-yl)oxy)methyl)-1-methyl-1H-1,2,3-triazol-4-yl)-2-methylpyridin-3-yl)oxy)cycloheptane-1-carboxylic Acid] |  |
| 53 nM | Cc1nc(-c2nnn(C)c2NC(=O)O[C@H](C)c2ccccc2)ccc1OC1CCCCC(C(=O)O)C1 (mixture of isomers) [Example 22, (±)-3-((2-methyl-6-(1-methyl-5-((((R)-1-phenylethoxy)carbonyl)amino)-1H-1,2,3-triazol-4-yl)pyridin-3-yl)oxy)cycloheptane-1-carboxylic Acid] |  |
| 9.5 nM | Cc1nc(-c2nnn(C)c2COC(=O)N(C)CC2CCC2)ccc1O[C@@H]1CCCC[C@@H](C(=O)O)C1 (single isomer, unassigned) [Example 2] |  |
| 108 nM | Cc1nc(-c2nnn(C)c2COC(=O)N(C)CC2CCC2)ccc1O[C@@H]1CCCC[C@@H](C(=O)O)C1 (single isomer, unassigned) [Example 3] |  |
| 19 nM | Cc1nc(-c2nnn(C)c2COC(=O)N(C)CC2CCC2)ccc1O[C@@H]1CCCC[C@H](C(=O)O)C1 (single isomer, unassigned) [Example 4] |  |
| 296 nM | Cc1nc(-c2nnn(C)c2COC(=O)N(C)CC2CCC2)ccc1O[C@@H]1CCCC[C@H](C(=O)O)C1 (single isomer, unassigned) [Example 5] |  |
| 117 nM | CCCN(C)C(=O)OCc1c(-c2ccc(OC3CCCCC(C(=O)O)C3)c(C)n2)nnn1C (stereo not drawn) [Example 6] |  |
| 11 nM | Cc1nc(-c2nnn(C)c2COC(=O)N(C)CC2CC2)ccc1OC1CCCCC(C(=O)O)C1 (stereo not drawn) [Example 7] |  |
| 11 nM | Cc1nc(-c2nnn(C)c2COC(=O)N(C)C2CCCC2)ccc1OC1CCCCC(C(=O)O)C1 (stereo not drawn) [Example 8] |  |
| 16 nM | Cc1nc(-c2nnn(C)c2COC(=O)N(C)CC(C)C)ccc1OC1CCCCC(C(=O)O)C1 (stereo not drawn) [Example 9] |  |
| 88 nM | Cc1nc(-c2nnn(C)c2COC(=O)N(C)CC(C)C)ccc1OC1CCCCC(C(=O)O)C1 (stereo not drawn) [Example 10] |  |
| 36 nM | Cc1nc(-c2nnn(C)c2COC(=O)N(C)CCC(C)C)ccc1OC1CCCCC(C(=O)O)C1 (stereo not drawn) [Example 11] |  |
| 25 nM | Cc1nc(-c2nnn(C)c2COC(=O)N(C)CCC(C)C)ccc1OC1CCCCC(C(=O)O)C1 (stereo not drawn) [Example 12] |  |
| 51 nM | Cc1nc(-c2nnn(C)c2COC(=O)N(C)C2CCC2)ccc1OC1CCCCC(C(=O)O)C1 (stereo not drawn) [Example 13] |  |
| 20 nM | Cc1nc(-c2nnn(C)c2COC(=O)N(C)C2CCC2)ccc1OC1CCCCC(C(=O)O)C1 (stereo not drawn) [Example 14] |  |
| 154 nM | Cc1nc(-c2nnn(C)c2COc2cc(C(C)(C)C)ncn2)ccc1OC1CCCCC(C(=O)O)C1 (stereo not drawn) [Example 16] |  |
| 325 nM | Cc1nc(-c2nnn(C)c2COc2cc(C(C)(C)C)ncn2)ccc1OC1CCCCC(C(=O)O)C1 (stereo not drawn) [Example 17] |  |
| 145 nM | Cc1nc(-c2nnn(C)c2COc2cc(C(C)C)ncn2)ccc1OC1CCCCC(C(=O)O)C1 (stereo not drawn) [Example 18] |  |
| 48 nM | Cc1nc(-c2nnn(C)c2COc2cc(C(C)C)ncn2)ccc1OC1CCCCC(C(=O)O)C1 (stereo not drawn) [Example 19] |  |
| 67 nM | COc1cc(OCc2c(-c3ccc(OC4CCCCC(C(=O)O)C4)c(C)n3)nnn2C)ncn1 (stereo not drawn) [Example 20] |  |
| 26 nM | COc1cc(OCc2c(-c3ccc(OC4CCCCC(C(=O)O)C4)c(C)n3)nnn2C)ncn1 (stereo not drawn) [Example 21] |  |
| 127 nM | Cc1nc(-c2nnn(C)c2NC(=O)OCC2CC2)ccc1OC1CCCCC(C(=O)O)C1 (stereo not drawn) [Example 23] |  |
| 91 nM | Cc1nc(-c2nnn(C)c2NC(=O)OCC(C)C)ccc1OC1CCCCC(C(=O)O)C1 (stereo not drawn) [Example 24] |  |
|  | C[C@@H](N)[C@H]1CC[C@H](C(=O)Nc2ccncc2)CC1 [Example Y-27632] | allodynia and hyperalgesia [2]: completely abolished |
|  | Cc1noc(-c2ccc(CSCCC(=O)O)cc2)c1NC(=O)OC(C)c1ccccc1Cl (stereo not drawn) [Ki16425] | chemotaxis of human foetal lung fibroblasts induced by BAL from IPF patients [3]: blocked; renal fibrosis profile of treated UUO mice [4]: closely resembled the profile of LPA1 (−/−) mice; LPA induction of CTGF expression [5]: almost completely suppressed; in vitro migration in response to LPA and peritoneal fluid (ascites) from pancreatic cancer patients [6]: effectively blocked; LPA-induced and ascites-induced invasion activity [7]: blocked |

Reference: patent US20220041572A1, “CYCLOHEPTYL ACIDS AS LPA ANTAGONISTS” (BRISTOL-MYERS SQUIBB COMPANY, priority 2018, published 2022)
